{
  "source": "patent US20090131354A1",
  "about": "“miR-126 REGULATED GENES AND PATHWAYS AS TARGETS FOR THERAPEUTIC INTERVENTION” (priority 2007, published 2009)",
  "key": {"[1]": {"test_system": "Du145 prostate cancer cells", "assay": "Long-term growth curve with repeated electroporation, Du145", "type": "cell-based, human", "description": "(§1) To evaluate the therapeutic activity of hsa-miR-126 over an extended period of time, we conducted growth curve experiments in the presence of miRNA for up to 21 days. Since in vitro transfections of naked interfering RNAs, such as synthetic miRNA, are transient by nature and compromised by the dilution of the oligonucleotide during ongoing cell divisions, we administered miRNA at multiple time points (Bartlett and Davis, 2006; Bartlett and Davis, 2007). To accommodate miRNA delivery into a large quantity of cells, we employed the electroporation method to delivery hsa-miR-126 or negative control miRNA into PPC-1, PC3 and Du145 human prostate cancer cells. Briefly, 1×10^6 PPC-1 or PC3 cells, and 0.5×10^6 Du145 cells were electroporated with 1.6 μM hsa-miR-126 or negative control using the BioRad Gene Pulser Xcell™ instrument (BioRad Laboratories Inc., Hercules, Calif., USA), seeded and propagated in regular growth medium. Experiments with PC3 and Du145 cells were carried out in triplicates. When the control cells reached confluence (days 4 and 11 for PPC-1; days 7 and 14 for PC3 and Du145), cells were harvested, counted and electroporated again with the respective miRNAs. […] The population doubling was calculated from these electroporation events using the formula PD=ln(Nf/N0)/ln2, and cell counts were extrapolated and plotted on a linear scale (FIGS. 10-12). […]"}, "[2]": {"test_system": "PC3 prostate cancer cells", "assay": "Long-term growth curve with repeated electroporation, PC3", "type": "cell-based, human", "description": "as §1"}, "[3]": {"test_system": "LNCaP prostate cancer cells", "assay": "Alamar Blue proliferation assay, LNCaP", "type": "cell-based, human", "conditions": "30 nM, normalized to negative control miRNA (100% proliferation)", "description": "The inventors assessed the therapeutic effect of hsa-miR-126 for prostate cancer by using 4 individual human prostate cancer cell lines. To measure cellular proliferation of prostate cancer cells, the following prostate cancer cell lines were used: PPC-1, derived from a bone metastasis; Du145, derived from a brain metastasis; RWPE2, derived from prostate cells immortalized by human papillomavirus 18 and transformed by the K-RAS oncogene; and LNCaP, derived from a lymph node metastasis (Stone et al., 1978; Horoszewicz et al., 1980; Brothman et al., 1991; Pretlow et al., 1993; Bello et al., 1997). PPC-1 and Du145 cells lack expression of the prostate-specific antigen (PSA) and are independent of androgen receptor (AR) signaling. In contrast, RWPE2 and LNCaP cells test positive for PSA and AR. Cells were transfected with synthetic hsa-miR-126 (Pre-miR™-hsa-miR-126, Ambion cat. no. AM 17100) or negative control miRNA (NC; Pre-miR™ microRNA Precursor Molecule-Negative Control #2; Ambion cat. no. AM17111) in a 96-well format using a lipid-based transfection reagent. […] Proliferation was assessed 4-7 days post-transfection using Alamar Blue™ (Invitrogen) following the manufacturer's instructions. […] Fluorescent light units (FLU) were measured after 3 hours, normalized to the control, and plotted as percent change in proliferation. […]"}, "[4]": {"test_system": "human PPC-1 prostate cancer xenograft", "assay": "PPC-1 prostate cancer xenograft", "type": "in vivo, NOD/SCID mice", "conditions": "PPC-1 xenograft", "protocol": "Therefore, hsa-miR-126 is a likely to interfere with prostate tumor growth in the animal. To explore this possibility, the therapeutic potential of synthetic hsa-miR-126 miRNA was evaluated in the animal using the PPC-1 human prostate cancer xenograft. As described in Example 8, 5×10^6 PPC-1 cells per animal were electroporated with 1.6 μM synthetic hsa-miR-126 or negative control miRNA (Pre-miR™-hsa-miR-126, Ambion cat. no. AM17100; NC, Pre-miR™ microRNA Precursor Molecule-Negative Control #2, Ambion cat. no. AM17111), mixed with BD Matrigel™, (BD Biosciences; San Jose, Calif., USA; cat. no. 356237) in a 1:1 ratio and implanted subcutaneously into the lower back of NOD/SCID mice (Charles River Laboratories, Inc.; Wilmington, Mass., USA). A group of 7 mice was injected with hsa-miR-126 treated PPC-1 cells, and a group of 7 animals was injected with PPC-1 cells treated with negative control miRNA. To maintain steady levels of miRNA, 6.25 μg of each hsa-miR-126 or negative control miRNA conjugated with the lipid-based siPORT™ amine delivery agent (Ambion, Austin, Tex.; cat. no. AM4502) were repeatedly administered on days 7, 13 and 20 via intra-tumoral injections. Given an average mouse weight of 20 g, this dose equals 0.3125 mg/kg. Tumor growth was monitored by taking caliper measurements every 1-2 days for 22 days. Tumor volumes were calculated using the formula, Volume=length×width×width/2, in which the length is greater than the width, and plotted over time (FIG. 13). Standard deviations and data points with p values <0.01, indicating statistical significance, are shown in graph."}},
  "data": [
    {"substance": "hsa-miR-126 (UCGUACCGUGAGUAAUAAUGC; synthetic pre-miR form, further chemistry not given here) [Synthetic hsa-miR-126 (Pre-miR™-hsa-miR-126, Ambion cat. no. AM17100)]", "values": [
      {"measurement": "inhibition of cell growth", "setting": "[1]; Du145, day 20, 1.6 μM repeated electroporation, relative to control cells (100%)", "result": 83.9, "unit": "%"},
      {"measurement": "remaining cells", "setting": "[1]; Du145, day 20, relative to control cells (100%)", "result": 16.1, "unit": "%"},
      {"measurement": "inhibition of cell growth", "setting": "[2]; PC3, day 21, 1.6 μM repeated electroporation, relative to control cells (100%)", "result": 90.7, "unit": "%"},
      {"measurement": "remaining cells", "setting": "[2]; PC3, day 21, relative to control cells (100%)", "result": 9.3, "unit": "%"},
      {"measurement": "% proliferation", "setting": "[3]", "result": 80.59, "unit": "%"},
      {"measurement": "average volume of tumors", "setting": "[4]; day 22, 6.25 μg intratumoral days 7, 13, 20", "result": 157, "unit": "mm^3"},
      {"measurement": "tumor volumes after treatment", "setting": "[4]; in response to treatments on days 7 and 13", "result": "approximately 130 mm^3"},
      {"measurement": "tumor growth", "setting": "[4]; repeated dosing", "result": "blocked tumor growth"}
    ]}
  ]
}
